pIC50: −log10 of the molar value.
How the values were obtained:
mTOR/GbL/Raptor (mTORC1) = mTOR/GbL/Raptor (mTORC1) (Homo sapiens, UniProt P42345); assay: mTOR/GbL/Raptor (mTORC1) ELISA assay; type: biochemical; conditions: phosphorylation of 4E-BP1; 0.2 nM mTORC1, 10 μM ATP; read-out: IC50 in this assay (mTORC1 ELISA)
Outline: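 ELISA read-out: phospho-4E-BP1 captured on Ni-chelate plates and detected with anti-phospho antibody plus HRP-anti-IgG luminescence. The kinase step ran 120 min at ambient temperature with 0.2 nM human mTORC1, 10 µM ATP, 50 nM His-4E-BP1, 10 mM MnCl2, pH 7.2 HEPES.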

PI3Kα = PI3Kα (Homo sapiens, UniProt P42336); assay: PI3K biochemical assay (luciferase-luciferin ATP consumption); conditions: 1.5 nM enzyme, 1 μM ATP, 10 μM PIP2; read-out: IC50 for PI3Kα in this assay
Experimental: PI3Kα activity is measured as the percent of ATP consumed following the kinase reaction using luciferase-luciferin-coupled chemiluminescence. Reactions were conducted in 384-well white, medium binding microtiter plates (Greiner). Kinase reactions were initiated by combining test compounds, ATP, substrate (PIP2), and kinase in a 20 μL volume in a buffer solution. The standard PI3Kalpha assay buffer is composed 50 mM Tris, pH 7.5, 1 mM EGTA, 10 mM MgCl2, 1 mM DTT and 0.03% CHAPS. The standard assay concentrations for enzyme, ATP, and substrate are 1.5 nM, 1 μM, and 10 μM, respectively. The reaction mixture was incubated at ambient temperature for approximately 2 h. Following the kinase reaction, a 10 μL aliquot of luciferase-luciferin mix (Promega Kinase-Glo) was added and the chemiluminescence signal measured using a Victor2 plate reader (Perkin Elmer). Total ATP consumption was limited to 40-60% and IC50 values of control compounds correlate well with literature references. Substituting PI3Kα with PI3Kβ, PI3Kγ, or PI3Kδ, the inhibitory activity of the compounds for the other isoforms of I3K were measured.

Chain of PI3Kα (P42336 whole entry, species assumed): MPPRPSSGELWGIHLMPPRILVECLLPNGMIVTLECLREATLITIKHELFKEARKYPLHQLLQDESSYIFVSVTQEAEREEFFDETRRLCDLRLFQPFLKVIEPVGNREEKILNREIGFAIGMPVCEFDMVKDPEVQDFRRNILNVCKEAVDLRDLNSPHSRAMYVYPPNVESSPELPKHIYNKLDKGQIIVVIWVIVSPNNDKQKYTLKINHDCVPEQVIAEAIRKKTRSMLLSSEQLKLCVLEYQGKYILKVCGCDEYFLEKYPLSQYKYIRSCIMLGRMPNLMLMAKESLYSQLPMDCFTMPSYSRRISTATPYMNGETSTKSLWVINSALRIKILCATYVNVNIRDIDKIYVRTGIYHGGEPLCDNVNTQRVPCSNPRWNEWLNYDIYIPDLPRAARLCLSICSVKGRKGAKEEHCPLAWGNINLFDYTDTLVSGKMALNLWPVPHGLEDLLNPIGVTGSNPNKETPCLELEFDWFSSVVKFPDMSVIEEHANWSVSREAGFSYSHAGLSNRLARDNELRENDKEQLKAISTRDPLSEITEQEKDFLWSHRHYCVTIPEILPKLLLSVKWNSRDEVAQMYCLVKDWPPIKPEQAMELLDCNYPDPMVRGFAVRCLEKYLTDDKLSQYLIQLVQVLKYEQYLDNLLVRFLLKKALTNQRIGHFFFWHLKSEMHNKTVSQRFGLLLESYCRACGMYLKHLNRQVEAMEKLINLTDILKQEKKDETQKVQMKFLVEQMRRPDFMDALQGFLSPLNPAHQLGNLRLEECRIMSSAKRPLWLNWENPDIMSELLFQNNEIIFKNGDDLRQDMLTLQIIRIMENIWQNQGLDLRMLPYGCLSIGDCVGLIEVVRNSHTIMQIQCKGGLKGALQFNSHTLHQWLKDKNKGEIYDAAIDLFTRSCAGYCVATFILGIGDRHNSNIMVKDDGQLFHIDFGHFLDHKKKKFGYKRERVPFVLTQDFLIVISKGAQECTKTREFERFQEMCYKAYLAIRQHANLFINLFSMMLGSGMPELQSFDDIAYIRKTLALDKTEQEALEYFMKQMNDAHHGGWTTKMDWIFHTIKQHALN
Chain of PI3Kα (P27986 whole entry partner, species assumed): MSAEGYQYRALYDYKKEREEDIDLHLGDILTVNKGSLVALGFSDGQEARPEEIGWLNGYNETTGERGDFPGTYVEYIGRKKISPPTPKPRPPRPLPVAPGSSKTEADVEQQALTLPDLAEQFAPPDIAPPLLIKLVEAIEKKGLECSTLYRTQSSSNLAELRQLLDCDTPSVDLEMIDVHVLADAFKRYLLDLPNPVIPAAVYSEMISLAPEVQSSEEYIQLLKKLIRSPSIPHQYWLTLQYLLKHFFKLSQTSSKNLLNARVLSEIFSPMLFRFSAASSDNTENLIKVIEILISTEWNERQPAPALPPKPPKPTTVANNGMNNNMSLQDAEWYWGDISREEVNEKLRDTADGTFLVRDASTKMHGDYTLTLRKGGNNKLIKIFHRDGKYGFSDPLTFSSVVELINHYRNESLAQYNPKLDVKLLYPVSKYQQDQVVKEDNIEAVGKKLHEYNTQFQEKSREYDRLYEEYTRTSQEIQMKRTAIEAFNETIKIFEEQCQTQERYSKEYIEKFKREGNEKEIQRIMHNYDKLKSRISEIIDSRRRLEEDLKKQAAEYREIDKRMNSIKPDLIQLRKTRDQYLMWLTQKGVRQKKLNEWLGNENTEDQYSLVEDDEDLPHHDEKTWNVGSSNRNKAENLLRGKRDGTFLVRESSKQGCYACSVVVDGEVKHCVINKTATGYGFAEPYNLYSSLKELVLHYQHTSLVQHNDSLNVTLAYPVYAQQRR

pIC50 (mTOR/GbL/Raptor (mTORC1))	pIC50 (PI3Kα)	SMILES
6.00 to 6.60	5.70 to 6.00	Cc1nc2ccc(-c3ccc4c(c3)CN(c3ncnc(Cc5ccccc5)c3C)CCO4)cc2[nH]1 [Example 41, 7-(2-methyl-1H-benzimidazol-6-yl)-4-[5-methyl-6-(phenylmethyl)pyrimidin-4-yl]-2,3,4,5-tetrahydro-1,4-benzoxazepine]
5.70 to 6.00	≤ 5.70	Cc1nc2ccc(-c3ccc4c(c3)CN(c3ncnc5[nH]ncc35)CCO4)cc2[nH]1 [Example 52, 7-(2-methyl-1H-benzimidazol-6-yl)-4-(1H-pyrazolo[3,4-d]pyrimidin-4-yl)-2,3,4,5-tetrahydro-1,4-benzoxazepine]
6.00 to 6.60	≤ 5.70	Cc1nc2ccc(-c3ccc4c(c3)CN(c3nc(SCc5ccccc5)nc5c3CCC5)CCO4)cc2[nH]1 [Example 53, 7-(2-methyl-1H-benzimidazol-6-yl)-4-{2-[(phenylmethyl)thio]-6,7-dihydro-5H-cyclopenta[d]pyrimidin-4-yl}-2,3,4,5-tetrahydro-1,4-benzoxazepine]
6.00 to 6.60	5.70 to 6.00	Cc1nc2ccc(-c3ccc4c(c3)CN(c3ncnc(C)c3CC(C)C)CCO4)cc2[nH]1 [Example 67, 7-(2-methyl-1H-benzimidazol-6-yl)-4-[6-methyl-5-(2-methylpropyl)pyrimidin-4-yl]-2,3,4,5-tetrahydro-1,4-benzoxazepine]
5.70 to 6.00	5.70 to 6.00	CSc1nc2c(c(N3CCOc4ccc(-c5ccc6nc(C)[nH]c6c5)cc4C3)n1)CC(C)C2 (stereo not drawn) [Example 71, 7-(2-methyl-1H-benzimidazol-6-yl)-4-[6-methyl-2-(methylthio)-6,7-dihydro-5H-cyclopenta[d]pyrimidin-4-yl]-2,3,4,5-tetrahydro-1,4-benzoxazepine]
6.00 to 6.60	5.70 to 6.00	Cc1nc2ccc(-c3ccc4c(c3)CN(c3ncnc5c3CSC5)CCO4)cc2[nH]1 [Example 75, 4-(5,7-dihydrothieno[3,4-d]pyrimidin-4-yl)-7-(2-methyl-1H-benzimidazol-6-yl)-2,3,4,5-tetrahydro-1,4-benzoxazepine]
6.60 to 7.30	5.70 to 6.00	Cc1nccc(N2CCOc3ccc(-c4cnc5nc(C)[nH]c5c4)cc3C2)n1 [Example 85, 7-(2-methyl-1H-imidazo[4,5-b]pyridin-6-yl)-4-(2-methylpyrimidin-4-yl)-2,3,4,5-tetrahydro-1,4-benzoxazepine]
6.00 to 6.60	≤ 5.70	Cc1nc2ccc(-c3ccc4c(c3)CN(c3ncnc5c3CN(C3CC3)C5)CCO4)cc2[nH]1 [Example 87, 4-(6-cyclopropyl-6,7-dihydro-5H-pyrrolo[3,4-d]pyrimidin-4-yl)-7-(2-methyl-1H-benzimidazol-6-yl)-2,3,4,5-tetrahydro-1,4-benzoxazepine]
5.70 to 6.00	≤ 5.70	Cc1ccc(N2Cc3ncnc(N4CCOc5ccc(-c6ccc7nc(C)[nH]c7c6)cc5C4)c3C2)cc1 [Example 88, 7-(2-methyl-1H-benzimidazol-6-yl)-4-[6-(4-methylphenyl)-6,7-dihydro-5H-pyrrolo[3,4-d]pyrimidin-4-yl]-2,3,4,5-tetrahydro-1,4-benzoxazepine]
≤ 5.70	≤ 5.70	Cc1nc2ccc(-c3ccc4c(c3)CN(c3ccccn3)CCO4)cc2[nH]1 [Example 104, 7-(2-methyl-1H-benzimidazol-6-yl)-4-pyridin-2-yl-2,3,4,5-tetrahydro-1,4-benzoxazepine]
5.70 to 6.00	5.70 to 6.00	Cc1nc2ccc(-c3ccc4c(c3)CN(c3ncccn3)CCO4)cc2[nH]1 [Example 106, 7-(2-methyl-1H-benzimidazol-6-yl)-4-pyrimidin-2-yl-2,3,4,5-tetrahydro-1,4-benzoxazepine]
≤ 5.70	5.70 to 6.00	COC(=O)Nc1nc2cc(-c3ccc4c(c3)CN(c3ccnc5ccccc35)CCO4)ccc2n1C [Example 115, methyl [1-methyl-5-(4-quinolin-4-yl-2,3,4,5-tetrahydro-1,4-benzoxazepin-7-yl)-1H-benzimidazol-2-yl]carbamate]
–	5.70 to 6.00	COCCOC(=O)Nc1nc2ccc(-c3ccc4c(c3)CN(c3ccnc5ccccc35)CCO4)cc2[nH]1 [Example 118, 2-(methyloxy)ethyl [6-(4-quinolin-4-yl-2,3,4,5-tetrahydro-1,4-benzoxazepin-7-yl)-1H-benzimidazol-2-yl]carbamate]
6.00 to 6.60	≤ 5.70	CCn1cnc2cc(-c3ccc4c(c3)CN(c3ccnc5ccccc35)CCO4)ccc21 [Example 127, 7-(1-ethyl-1H-benzimidazol-5-yl)-4-quinolin-4-yl-2,3,4,5-tetrahydro-1,4-benzoxazepine]
≤ 5.70	≤ 5.70	Cc1nc2cc(-c3ccc4c(c3)CN(c3ccnc5ccccc35)CCO4)ccc2s1 [Example 128, 7-(2-methyl-1,3-benzothiazol-5-yl)-4-quinolin-4-yl-2,3,4,5-tetrahydro-1,4-benzoxazepine]
–	5.70 to 6.00	Cn1ncc2cc(-c3ccc4c(c3)CN(c3ccnc5ccccc35)CCO4)ccc21 [Example 139, 7-(1-methyl-1H-indazol-5-yl)-4-quinolin-4-yl-2,3,4,5-tetrahydro-1,4-benzoxazepine]
6.00 to 6.60	≤ 5.70	Cc1ncnc(N2CCOc3ccc(-c4ccc(C(=O)N[C@H]5CCNC5)cc4)cc3C2)c1Cc1ccc(F)cc1 [Example 173, 4-(4-{5-[(4-fluorophenyl)methyl]-6-methylpyrimidin-4-yl}-2,3,4,5-tetrahydro-1,4-benzoxazepin-7-yl)-N-[(3S)-pyrrolidin-3-yl]benzamide]
≤ 5.70	≤ 5.70	c1ccc2c(N3CCOc4ccc(-c5ccc6nc(C7CCCC7)[nH]c6c5)cc4C3)ccnc2c1 [Example 198, 7-(2-cyclopentyl-1H-benzimidazol-6-yl)-4-quinolin-4-yl-2,3,4,5-tetrahydro-1,4-benzoxazepine]
≤ 5.70	5.70 to 6.00	c1ccc2c(N3CCOc4ccc(-c5ccsc5)cc4C3)ccnc2c1 [Example 204, 4-quinolin-4-yl-7-(3-thienyl)-2,3,4,5-tetrahydro-1,4-benzoxazepine]
5.70 to 6.00	5.70 to 6.00	c1ccc2ncc(-c3ccc4c(c3)CN(c3ccnc5ccccc35)CCO4)cc2c1 [Example 205, 7-quinolin-3-yl-4-quinolin-4-yl-2,3,4,5-tetrahydro-1,4-benzoxazepine]
5.70 to 6.00	≤ 5.70	c1ccc2sc(-c3ccc4c(c3)CN(c3ccnc5ccccc35)CCO4)cc2c1 [Example 206, 7-(1-benzothien-2-yl)-4-quinolin-4-yl-2,3,4,5-tetrahydro-1,4-benzoxazepine]
–	≤ 5.70	CNC(=O)c1cccc(-c2ccc3c(c2)CN(c2nc(C)nc4cc(OC)ccc24)CCO3)c1 [Example 644, N-methyl-3-{4-[2-methyl-7-(methyloxy)quinazolin-4-yl]-2,3,4,5-tetrahydro-1,4-benzoxazepin-7-yl}benzamide]
–	5.70 to 6.00	CC[C@H]1CCc2c(nc(C)nc2N2CCOc3ccc(-c4cnc5nc([C@H](C)NC(=O)OCc6ccccc6)[nH]c5c4)cc3C2)C1 [Example 646, phenylmethyl [(1S)-1-(6-{4-[(7S)-7-ethyl-2-methyl-5,6,7,8-tetrahydroquinazolin-4-yl]-2,3,4,5-tetrahydro-1,4-benzoxazepin-7-yl}-1H-imidazo[4,5-b]pyridin-2-yl)ethyl]carbamate]

Source: patent publication US8648066B2 (Exelixis, Inc., priority 2009, dated 2014)
